Experimental data: paper PMC10439230 (Scientific Reports, 2023)

Assays:
[1] = tested on: HepG2 (hepatocellular carcinoma); assay: Cytotoxic activity assay (MTT); format: cell-based, human; settings: for IC50: Homo sapiens, HepG2, 48 h exposure, MTT, read-out: Cell lines, IC50 (μM) HepG2; for Selectivity Index (SI) values HepG2: SI = IC50 normal cell (MRC-5)/ IC50 cancer cell
Excerpt: (§1) The synthetic compounds were screened for their cytotoxic activity using standard MTT or XTT methods[30] against a panel of nine human cancer cell lines and one normal cell line, including MDA-MB-231 (triple-negative breast cancer), T-47D (hormone-dependent breast cancer), HepG2 (hepatocellular carcinoma), A549 (lung adenocarcinoma), H69AR (multidrug-resistant small cell lung carcinoma), HuCCA-1 (cholangiocarcinoma derived from a patient), HeLa (cervical carcinoma), and two leukemia cell lines, HL-60 (acute promyelocytic leukemia) and MOLT-3 (T cell acute lymphoblastic leukemia). MRC-5 normal embryonic lung fibroblast cell line was used to represent normal cells. Chemotherapeutic drugs, doxorubicin and etoposide, were used as positive controls.
(§2) The cells were seeded into 96-well plates (100 µL for adherent cells and 75 µL for suspended cells) at a density of 5000–20,000 cells per well, depending on their growth rates. Adherent and suspended cells were then allowed to grow at 37 °C with 95% humidity and 5% CO2 for 24 h and 30 min, respectively. The cytotoxicity assay was initiated by adding an equal volume of cell culture medium containing tested compound at predetermined concentrations. Following 48 h of exposure, cell viability was determined using MTT assay for adherent cells[51],[52]or XTT assay for suspeended cells. Briefly, for adherent cells, 100 µL of the MTT reagent was added to each well, and the microtiter plates were further incubated for 2.5–4 h. The medium was subsequently replaced with 100 µL of DMSO to dissolve the purple formazan before the absorbance at 550 nm was measured using a microplate reader (a SpectraMax Plus 384) with a reference wavelength of 650 nm. For suspended cells, 75 µL of the XTT reagent was added to each well, and the cells were further incubated for 4 h. Afterwards, the absorbance of orange formazan at 492 nm was measured with a reference wavelength of 690 nm using a microplate reader.

[2] = tested on: A549 (lung adenocarcinoma); assay: Cytotoxic activity assay (MTT); format: cell-based, human; settings: for IC50: Homo sapiens, A549, 48 h exposure, MTT, read-out: Cell lines, IC50 (μM) A549; for Selectivity Index (SI) values A549: SI = IC50 normal cell (MRC-5)/ IC50 cancer cell
Excerpt: as §1, §2

[3] = tested on: HuCCA-1 (cholangiocarcinoma derived from a patient); assay: Cytotoxic activity assay (MTT); format: cell-based, human; settings: for IC50: Homo sapiens, HuCC-A1, 48 h exposure, MTT, read-out: Cell lines, IC50 (μM) HuCCA-1; for Selectivity Index (SI) values HuCCA-1: SI = IC50 normal cell (MRC-5)/ IC50 cancer cell
Excerpt: as §1, §2

[4] = tested on: T-47D (hormone-dependent breast cancer); assay: Cytotoxic activity assay (MTT); format: cell-based, human; settings: for IC50: Homo sapiens, T47D, 48 h exposure, MTT, read-out: Cell lines, IC50 (μM) T47-D; for Selectivity Index (SI) values T47-D: SI = IC50 normal cell (MRC-5)/ IC50 cancer cell
Excerpt: as §1, §2

[5] = tested on: HeLa (cervical carcinoma); assay: Cytotoxic activity assay (MTT); format: cell-based, human; settings: for IC50: Homo sapiens, 48 h exposure, MTT, read-out: Cell lines, IC50 (μM) HeLa; for Selectivity Index (SI) values HeLa: SI = IC50 normal cell (MRC-5)/ IC50 cancer cell
Excerpt: as §1, §2

[6] = tested on: MDA-MB-231 (triple-negative breast cancer); assay: Cytotoxic activity assay (MTT); format: cell-based, human; settings: for IC50: Homo sapiens, MDA-MB-231, 48 h exposure, MTT, read-out: Cell lines, IC50 (μM) MDA-MB-231; for Selectivity Index (SI) values MDA-MB-231: SI = IC50 normal cell (MRC-5)/ IC50 cancer cell
Excerpt: as §1, §2

[7] = tested on: H69AR (multidrug-resistant small cell lung carcinoma); assay: Cytotoxic activity assay (MTT); format: cell-based, human; settings: for IC50: Homo sapiens, H69AR, 48 h exposure, MTT, read-out: Cell lines, IC50 (μM) H69AR; for Selectivity Index (SI) values H69AR: SI = IC50 normal cell (MRC-5)/ IC50 cancer cell
Excerpt: as §1, §2

[8] = tested on: MRC-5 normal embryonic lung fibroblast cell line; assay: Cytotoxic activity assay (MTT), normal cells; format: cell-based; settings: Homo sapiens, MRC5, 48 h exposure, read-out: Cell lines, IC50 (μM) MRC-5
Excerpt: as §1, §2

[9] = tested on: HL-60 (acute promyelocytic leukemia); assay: Cytotoxic activity assay (XTT); format: cell-based, human; settings: for IC50: Homo sapiens, HL-60, 48 h exposure, XTT, read-out: Cell lines, IC50 (μM) HL-60; for Selectivity Index (SI) values HL-60: SI = IC50 normal cell (MRC-5)/ IC50 cancer cell
Excerpt: as §1, §2

[10] = tested on: MOLT-3 (T cell acute lymphoblastic leukemia); assay: Cytotoxic activity assay (XTT); format: cell-based, human; settings: for IC50: Homo sapiens, MOLT-3, 48 h exposure, XTT, read-out: Cell lines, IC50 (μM) MOLT-3; for Selectivity Index (SI) values MOLT-3: SI = IC50 normal cell (MRC-5)/ IC50 cancer cell
Excerpt: as §1, §2

| Structure (SMILES) | IC50 [1] [µM] | Selectivity Index (SI) values HepG2 [1] | IC50 [2] [µM] | Selectivity Index (SI) values A549 [2] | IC50 [3] [µM] | Selectivity Index (SI) values HuCCA-1 [3] | IC50 [4] [µM] | Selectivity Index (SI) values T47-D [4] | IC50 [5] [µM] | Selectivity Index (SI) values HeLa [5] | IC50 [6] [µM] | Selectivity Index (SI) values MDA-MB-231 [6] | IC50 [7] [µM] | Selectivity Index (SI) values H69AR [7] | IC50 [8] [µM] | IC50 [9] [µM] | Selectivity Index (SI) values HL-60 [9] | IC50 [10] [µM] | Selectivity Index (SI) values MOLT-3 [10] |
| --- | --- | --- | --- | --- | --- | --- | --- | --- | --- | --- | --- | --- | --- | --- | --- | --- | --- | --- | --- |
| C=C1CC[C@H]2C(C)(C)CCC[C@]2(C)[C@H]1CC/C(C)=C/C(=O)N(C)C [Compound 4m, (E)-N,N,3-Trimethyl-5-((1S,4aS,8aS)-5,5,8a-trimethyl-2-methylenedecahydro-naphthalen-1-yl)pent-2-enamide] | 52.1 ± 2.82 | 0.8 | 51.82 ± 0.25 | 0.8 | 44.31 ± 0.42 | 0.9 | 42.6 ± 1.08 | 1.0 | 40.1 ± 0.68 | 1.0 | 32.1 ± 1.68 | 1.3 | 99.97 ± 0.74 | 0.4 | 40.8 ± 0.56 | 19.4 ± 0.84 | 2.1 | 21.3 ± 0.47 | 1.9 |
| C=C1CC[C@H]2C(C)(C)CCC[C@]2(C)[C@H]1CC/C(C)=C/C(=O)NCc1ccccn1 [Compound 4g, (E)-3-Methyl-N-(pyridin-2-ylmethyl)-5-((1S,4aS,8aS)-5,5,8a-trimethyl-2-methylenedecahydronaphthalen-1-yl)pent-2-enamide] | 41.7 ± 1.46 | 1.1 | 38.2 ± 0.49 | 1.2 | 46.2 ± 0.6 | 1.0 | 55.1 ± 2.8 | 0.8 | 46.7 ± 1.03 | 1.0 | 35.1 ± 0.98 | 1.3 | 92.7 ± 1.18 | 0.5 | 44.8 ± 1.62 | 22.7 ± 0.36 | 2.0 | 20.9 ± 0.99 | 2.1 |
| C=C1CCC2C(C)(C)CCCC2(C)C1CCC(C)=CC(=O)NCC(=O)OCC [Compound 4r, Ethyl ((E)-3-methyl-5-((1S,4aS,8aS)-5,5,8a-trimethyl-2-methylenedec-ahydronaphthalen-1-yl)pent-2-enoyl)glycinate] | 61.3 ± 1.12 | 1.0 | 67.3 ± 2.09 | 0.9 | 72.3 ± 1.93 | 0.9 | 87.2 ± 6.02 | 0.7 | 36.6 ± 1.44 | 1.7 | 23.4 ± 0.81 | 2.7 | 45.9 ± 1.8 | 1.4 | 63.9 ± 0.65 | 23.9 ± 0.59 | 2.7 | 11.5 ± 1.13 | 5.6 |
| C=C1CC[C@H]2C(C)(C)CCC[C@]2(C)[C@H]1CC/C(C)=C/C(=O)N1CCCCC1 [Compound 4n, (E)-3-Methyl-1-(piperidin-1-yl)-5-((1S,4aS,8aS)-5,5,8a-trimethyl-2-methylenedecahydronaphthalen-1-yl)pent-2-en-1-one] | 32.2 ± 1.37 | 1.2 | 41.7 ± 1.43 | 0.9 | 41.25 ± 0.19 | 0.9 | 73 ± 3.31 | 0.5 | 38.91 ± 0.13 | 1.0 | 33.9 ± 1.93 | 1.1 | 52.31 ± 0.42 | 0.7 | 38.4 ± 1.2 | 20.5 ± 0.5 | 1.9 | 21 ± 0.32 | 1.8 |
| C#CCNC(=O)/C=C(\C)CC[C@H]1C(=C)CC[C@H]2C(C)(C)CCC[C@]12C [Compound 4c, (E)-3-Methyl-N-(prop-2-yn-1-yl)-5-((1S,4aS,8aS)-5,5,8a-trimethyl-2-methylenedecahydronaphthalen-1-yl)pent-2-enamide] | 85.06 ± 0.61 | 0.6 | 54.1 ± 1.17 | 0.9 | 52.7 ± 0.11 | 0.9 | 76.6 ± 4.68 | 0.6 | 28.1 ± 0.93 | 1.7 | 27.5 ± 0.62 | 1.8 | 113 ± 1.35 | 0.4 | 48.1 ± 0.62 | 24.13 ± 0.08 | 2.0 | 23.2 ± 1.03 | 2.1 |
| C=C1CCC2C(C)(C)CCCC2(C)C1CCC(C)=CC(=O)O (centres unmarked) [Compound 1, anticopalic acid] | > 120 | 1.0 | 159.1 ± 0.78 | 1.0 | 157.1 ± 0.51 | 1.0 | > 120 | 1.0 | 145.2 ± 0.31 | 1.1 | > 120 | 1.0 | > 120 | 1.0 | > 120 | 103 ± 10.7 | 1.6 | 66.02 ± 0.12 | 2.5 |
| C=CCNC(=O)/C=C(\C)CC[C@H]1C(=C)CC[C@H]2C(C)(C)CCC[C@]12C [Compound 4b, (E)-N-Allyl-3-methyl-5-((1S,4aS,8aS)-5,5,8a-trimethyl-2-methylenedeca-hydronaphthalen-1-yl)pent-2-enamide] | 107 ± 1.28 | 1.4 | > 120 | 1.0 | > 120 | 1.0 | > 120 | 1.0 | 79.61 ± 0.49 | 1.8 | 114.3 ± 0.72 | 1.3 | > 120 | 1.0 | > 120 | 22.7 ± 0.84 | 6.4 | 25.4 ± 0.51 | 5.7 |
| C=C1CC[C@H]2C(C)(C)CCC[C@]2(C)[C@H]1CC/C(C)=C/C(=O)N(C)OC [Compound 4o, (E)-N-Methoxy-N,3-dimethyl-5-((1S,4aS,8aS)-5,5,8a-trimethyl-2-methylene-decahydronaphthalen-1-yl)pent-2-enamide] | 57.3 ± 1.82 | 0.8 | 82.4 ± 0.99 | 0.6 | 54.3 ± 1.18 | 0.9 | 46.4 ± 1.73 | 1.0 | 52.86 ± 0.02 | 0.9 | 38.8 ± 0.44 | 1.2 | 115.1 ± 0.64 | 0.4 | 47.2 ± 0.96 | 27.9 ± 1.99 | 1.7 | 29.8 ± 1.89 | 1.6 |
